One assay addresses T1, human mu opioid receptor (Homo sapiens, UniProt P35372).
T1 construct: purchased Perkin Elmer RBHOMM400UA; host or cells: Chinese Hamster Ovary cells (recombinant expression)
In words: Human Mu Opioid Receptor Binding Assay (CHO membranes, 3H-Damgo). The following applies: read-out: hKi μ. The procedure:
Membranes from Chinese Hamster Ovary cells expressing the human […] opioid receptor (Perkin Elmer #RBHOMM400UA) are homogenized in assay buffer (50 mM Tris, pH 7.5 with 5 mM MgCl2) using a glass tissue grinder, Teflon pestle and a Steadfast Stirrer (Fisher Scientific). The concentration of membranes is adjusted to 300 μg/mL in assay buffer and 100 μL is dispensed into each well of the assay plate, a 96 well round bottom polypropylene plate. Compounds to be tested are solubilized in DMSO (Pierce), 10 mM, then diluted in assay buffer to 6× the desired final concentration. The ligand, ^3H-Damgo (Perkin Elmer #NET-902) is also diluted in assay buffer to 3.6 nM. In a second 96 well round bottom polypropylene plate, known as the premix plate, 60 μL of the 6× compound is combined with 60 μL of 3.6 nM ^3H-Damgo. From this premix plate 50 μL is transferred to the assay plate containing the membranes, in duplicate. The assay plate is incubated for 2 h at room temperature. A GF/C 96 well filter plate (Perkin Elmer #6005174) is pretreated with 0.3% polyethylenimine for 30 min. The contents of the assay plate are filtered through the filter plate using a Packard Filtermate Harvester, and washed 3 times with 0.9% saline that is 4° C. The filter plate is dried, the underside sealed, and 30 μL Microscint20 (Packard #6013621) added to each well. A Topcount-NXT Microplate Scintillation Counter (Packard) is used to measure emitted energies in the range of 2.9 to 35 KeV. […] Nonspecific binding is determined in the presence of 1 μM unlabelled Damgo (Tocris #1171).

The target of assay [1] is T2, human delta subtype 2 opioid receptor (Homo sapiens, UniProt P41143).
T2 construct: purchased Perkin Elmer RBHODM400UA; host or cells: Chinese Hamster Ovary cells (recombinant expression)
T2 sequence (P41143 whole entry): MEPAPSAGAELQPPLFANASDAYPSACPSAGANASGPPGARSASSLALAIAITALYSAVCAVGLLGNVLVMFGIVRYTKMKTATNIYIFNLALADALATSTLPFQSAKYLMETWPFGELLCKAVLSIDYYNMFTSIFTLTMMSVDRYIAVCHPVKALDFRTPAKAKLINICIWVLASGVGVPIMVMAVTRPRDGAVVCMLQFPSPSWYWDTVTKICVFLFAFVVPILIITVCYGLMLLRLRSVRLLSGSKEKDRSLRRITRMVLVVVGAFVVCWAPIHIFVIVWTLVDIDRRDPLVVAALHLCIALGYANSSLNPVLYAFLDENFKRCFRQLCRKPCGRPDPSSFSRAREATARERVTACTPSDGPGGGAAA
Nature of the assay: Human Delta Opioid Receptor Binding Assay (CHO membranes, 3H-Naltrindole). The following applies: read-out: hKi δ. The procedure: This assay is designed to test the ability of a compound to interfere with the binding of tritiated Naltrindole to the human delta subtype 2 opioid receptor. Membranes from Chinese Hamster Ovary cells expressing the human delta subtype 2 opioid receptor (Perkin Elmer #RBHODM400UA) are homogenized in assay buffer (50 mM Tris, pH 7.5 with 5 mM MgCl2) using a glass tissue grinder, Teflon pestle and a Steadfast Stirrer (Fisher Scientific). The concentration of membranes is adjusted to 100 μg/mL in assay buffer and 100 μL is dispensed into each well of the assay plate, a 96 well round bottom polypropylene plate. Compounds to be tested are solubilized in DMSO (Pierce), 10 mM, then diluted in assay buffer to 6× the desired final concentration. The ligand, ^3H-Naltrindole (Perkin Elmer #NET-1065) is also diluted in assay buffer to 6 nM. In a second 96 well round bottom polypropylene plate, known as the premix plate, 60 μL of the 6× compound is combined with 60 μL of 6 nM ^3H-Naltrindole. From this premix plate 50 μL is transferred to the assay plate containing the membranes, in duplicate. The assay plate is incubated for 30 min at room temperature. A GF/C 96 well filter plate (Perkin Elmer #6005174) is pretreated with 0.3% polyethylenimine for 30 min. The contents of the assay plate are filtered through the filter plate using a Packard Filtermate Harvester, and washed 3 times with 0.9% saline that is 4° C. The filter plate is dried, the underside sealed, and 30 μL Microscint20 (Packard #6013621) added to each well. A Topcount-NXT Microplate Scintillation Counter (Packard) is used to measure emitted energies in the range of 2.9 to 35 KeV. Results are compared to maximum binding, wells receiving no inhibitors. Nonspecific binding is determined in the presence of 1 μM unlabelled Naltrindole (Sigma #N115).

Molecules are shown by their SMILES. Where only a bound is given, the exact number is not on record here.

T1 sequence (P35372 whole entry): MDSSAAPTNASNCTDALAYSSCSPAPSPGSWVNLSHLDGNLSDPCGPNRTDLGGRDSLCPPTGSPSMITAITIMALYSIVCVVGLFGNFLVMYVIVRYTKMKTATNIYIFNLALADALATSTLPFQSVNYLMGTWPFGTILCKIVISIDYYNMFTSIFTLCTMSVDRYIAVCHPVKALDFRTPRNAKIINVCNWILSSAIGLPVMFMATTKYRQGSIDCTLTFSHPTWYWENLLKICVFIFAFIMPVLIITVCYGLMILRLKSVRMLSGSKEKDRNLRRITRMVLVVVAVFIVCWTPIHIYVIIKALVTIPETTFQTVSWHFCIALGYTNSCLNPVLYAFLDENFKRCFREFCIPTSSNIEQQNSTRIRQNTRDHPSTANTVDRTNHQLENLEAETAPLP

As for `Cc1cc(O)cc(C)c1C[C@H](N)C(=O)N(Cc1nc(-c2cccc(O)c2)c(C)[nH]1)C(C)C` [Cpd 68], the Ki on human mu opioid receptor came out at 0.0006 µM; in assay [1], 0.059 µM.

Turning to `COc1ccc(-c2nc(CN(C(=O)[C@@H](N)Cc3c(C)cc(O)cc3C)C(C)C)[nH]c2C)cc1` [Cpd 125], the Ki is 0.0086 µM at human mu opioid receptor and 0.237 µM in assay [1].

Take `Cc1cc(O)cc(C)c1C[C@H](N)C(=O)N(Cc1ccccc1)[C@H](c1nc(-c2ccccc2)c[nH]1)C(C)C` [Cpd 106]: the Ki on human mu opioid receptor came out at 0.15 µM; in assay [1], 0.279 µM.

Regarding `Cc1cc(O)cc(C)c1CC(N)C(=O)N(Cc1ccccc1)C(C)c1nc(-c2ccc(F)cc2)c[nH]1` (centres unmarked) [Cpd 83], the Ki at human mu opioid receptor came to 0.00467 µM; in assay [1], 0.048 µM.

Regarding `Cc1cc(C(N)=O)cc(C)c1C[C@H](N)C(=O)N(Cc1ccccc1)[C@@H](C)c1nc(-c2cccc(F)c2)c[nH]1` [Cpd 59], the Ki came out at 0.0051 µM on human mu opioid receptor and 0.12 µM in assay [1].

On to `Cc1cc(O)cc(C)c1C[C@H](N)C(=O)N(Cc1ccc2ccccc2c1)[C@@H](C)c1nc(-c2ccccc2)c[nH]1` [Cpd 100], for which the figures for the Ki (on human mu opioid receptor; in assay [1]) were 0.02 µM and 0.088 µM, respectively.

On to `Cc1cc(O)cc(C)c1C[C@H](N)C(=O)N[C@@H](CO)c1nc(-c2ccccc2)c[nH]1` [Cpd 119], for which the Ki at human mu opioid receptor was 0.185 µM; in assay [1] it was above 10 µM.

Regarding `Cc1cc(O)cc(C)c1C[C@H](N)C(=O)N(C(C)C)[C@@H](C)c1nc(-c2ccc(F)cc2)c[nH]1` [Cpd 84], the results for the Ki (on human mu opioid receptor; in assay [1]) were 0.0011 µM and 0.0096 µM, respectively.

Take `Cc1cc(C(N)=O)cc(C)c1C[C@H](N)C(=O)N(Cc1ccccc1)[C@@H](C)c1nc(-c2ccc(F)cc2)c[nH]1` [Cpd 76]: the Ki on human mu opioid receptor came out at 0.0016 µM; in assay [1], 0.0431 µM.

Regarding `Cc1cc(O)cc(C)c1C[C@H](N)C(=O)N(Cc1cccc2ccccc12)[C@@H](C)c1nc(-c2ccccc2)c[nH]1` [Cpd 99], the Ki was 0.016 µM at human mu opioid receptor and 0.0193 µM in assay [1].

Take `Cc1cc(O)cc(C)c1C[C@H](N)C(=O)N(Cc1nc(-c2ccc(N(C)C)cc2)c(C)[nH]1)C(C)C` [Cpd 66]: the Ki was determined as 0.0065 µM on human mu opioid receptor and 0.55 µM in assay [1].

`Cc1cc(C(N)=O)cc(C)c1C[C@H](N)C(=O)N(Cc1ccccc1)[C@@H](COCc1ccccc1)c1nc(-c2ccccc2)c[nH]1` [Cpd 64]: the Ki at human mu opioid receptor came out at 0.117 µM; in assay [1], 1.11 µM.

As to `COc1ccccc1CN(C(=O)[C@@H](N)Cc1c(C)cc(O)cc1C)[C@@H](C)c1nc(-c2ccccc2)c[nH]1` [Cpd 96], the Ki on human mu opioid receptor was 0.0097 µM; in assay [1], 0.0146 µM.

With `Cc1cc(O)cc(C)c1C[C@H](N)C(=O)N(Cc1nc(-c2cccnc2)c(C)[nH]1)C(C)C` [Cpd 124], the Ki at human mu opioid receptor was found to be 0.0017 µM; in assay [1] it was 1.28 µM.

Consider `Cc1cc(O)cc(C)c1C[C@H](N)C(=O)N(C(C)C)[C@@H](Cc1cccc(C(N)=O)c1)c1nc(-c2ccccc2)c[nH]1` [Cpd 121], for which the results for the Ki (on human mu opioid receptor; in assay [1]) were 0.0253 µM and 0.182 µM, respectively.

As for `CC(C)N(C(=O)[C@@H](N)Cc1cccc(C(N)=O)c1)[C@@H](Cc1ccccc1)c1nc(-c2ccccc2)c[nH]1` [Cpd 136], the Ki at human mu opioid receptor was 0.726 µM; in assay [1] it was 1.61 µM.

For the compound `Cc1cc(O)cc(C)c1C[C@H](N)C(=O)N(C(C)C)[C@@H](Cc1cccc(CN)c1)c1nc(-c2ccccc2)c[nH]1` [Cpd 120], the Ki on human mu opioid receptor turned out to be 0.0208 µM; in assay [1] it was 0.74 µM.

On to `Cc1cc(C(N)=O)cc(C)c1C[C@H](N)C(=O)N(C1CCCCC1)[C@@H](C)c1nc(-c2ccccc2)c[nH]1` [Cpd 127], for which the values for the Ki (on human mu opioid receptor; in assay [1]) were 0.047 µM and 0.71 µM, respectively.

On to `COc1cccc(-c2nc(CN(C(=O)[C@@H](N)Cc3c(C)cc(O)cc3C)C(C)C)[nH]c2C)c1` [Cpd 142], for which the Ki on human mu opioid receptor was 0.0082 µM; in assay [1], 0.454 µM.

For the compound `Cc1cc(O)cc(C)c1C[C@H](N)C(=O)N(Cc1nc(-c2cccc3ccccc23)c(C)[nH]1)C(C)C` [Cpd 156], the Ki was 0.00059 µM on human mu opioid receptor and 0.38 µM in assay [1].

As for `Cc1cc(O)cc(C)c1C[C@H](N)C(=O)N(C(C)C)[C@H](CO)c1nc(-c2ccccc2)c[nH]1` [Cpd 63], the Ki at human mu opioid receptor is 0.058 µM; in assay [1], 0.473 µM.

In the case of `Cc1cc(O)cc(C)c1C[C@H](N)C(=O)N(Cc1nc(-c2cccc(-c3ccccc3)c2)c(C)[nH]1)C(C)C` [Cpd 134], the Ki at human mu opioid receptor turned out to be 0.121 µM; in assay [1], 0.463 µM.

Take `COC(=O)c1cccc(CN(C(=O)[C@@H](N)Cc2c(C)cc(O)cc2C)[C@@H](C)c2nc(-c3ccccc3)c[nH]2)c1` [Cpd 52]: the Ki was 0.0121 µM on human mu opioid receptor and 0.066 µM in assay [1].

On to `Cc1cc(O)cc(C)c1CC(N)C(=O)Oc1cc(C)c(C[C@H](N)C(=O)N(C(C)C)[C@@H](CC(C)C)c2nc(-c3ccccc3)c[nH]2)c(C)c1` (some centres unmarked) [Cpd 139], for which the Ki at human mu opioid receptor is 0.058 µM; in assay [1], 1.26 µM.

On to `CC(C)[C@@H](c1nc(-c2ccccc2)c[nH]1)N(C(=O)[C@@H](N)Cc1ccc(O)cc1)C(C)C` [Cpd 161], for which the Ki on human mu opioid receptor is above 1 µM; in assay [1], above 10 µM.

For `Cc1cc(O)cc(C)c1C[C@H](N)C(=O)N(Cc1ccccc1)[C@@H](CC(C)C)c1nc(-c2ccccc2)c[nH]1` [Cpd 104], the Ki at human mu opioid receptor was determined as 0.1 µM; in assay [1], 0.484 µM.

With `Cc1cc(O)cc(C)c1C[C@H](N)C(=O)N(Cc1ccccc1)[C@@H](Cc1ccccc1)c1nc(-c2ccccc2)c[nH]1` [Cpd 105], the Ki on human mu opioid receptor is 0.41 µM; in assay [1], 0.742 µM.

With `Cc1cc(O)cc(C)c1C[C@H](N)C(=O)N(C(C)C)[C@@H](Cc1ccccc1)c1nc(-c2ccccc2)c[nH]1` [Cpd 159], the Ki was found to be 0.0086 µM on human mu opioid receptor and 0.4 µM in assay [1].

For the compound `Cc1cc(O)cc(C)c1C[C@H](N)C(=O)N(Cc1nc(-c2cc(Cl)cc(Cl)c2)c(C)[nH]1)C(C)C` [Cpd 141], the figures for the Ki (at human mu opioid receptor; in assay [1]) were 0.052 µM and 0.252 µM, respectively.

As to `Cc1cc(O)cc(C)c1C[C@H](N)C(=O)N(Cc1nc(-c2ccc(F)cc2F)c(C)[nH]1)C(C)C` [Cpd 71], the Ki on human mu opioid receptor amounted to 0.00057 µM; in assay [1], 0.102 µM.

Take `Cc1cc(O)cc(C)c1C[C@H](N)C(=O)N(Cc1nc(-c2ccc(C(=O)O)cc2)c(C)[nH]1)C(C)C` [Cpd 123]: the Ki on human mu opioid receptor turned out to be 0.047 µM; in assay [1], 0.084 µM.

On to `Cc1cc(C(N)=O)cc(C)c1C[C@H](N)C(=O)N(CCCc1ccccc1)[C@@H](C)c1nc(-c2ccccc2)c[nH]1` [Cpd 108], for which the Ki on human mu opioid receptor was 0.0235 µM; in assay [1], 0.0433 µM.

With `Cc1cc(O)cc(C)c1C[C@H](N)C(=O)N(C(C)C)[C@H](c1nc(-c2ccccc2)c[nH]1)C(C)C` [Cpd 162], the Ki turned out to be 0.0076 µM at human mu opioid receptor and 0.173 µM in assay [1].

On to `Cc1cc(O)cc(C)c1C[C@H](N)C(=O)N(Cc1nc(-c2cccc(C#N)c2)c(C)[nH]1)C(C)C` [Cpd 60], for which the values for the Ki (on human mu opioid receptor; in assay [1]) were 0.002 µM and 0.114 µM, respectively.

`COc1ccccc1-c1nc(CN(C(=O)[C@@H](N)Cc2c(C)cc(O)cc2C)C(C)C)[nH]c1C` [Cpd 135]: the values for the Ki (at human mu opioid receptor; in assay [1]) were 0.007 µM and 1.04 µM, respectively.

For `Cc1cc(O)cc(C)c1C[C@H](N)C(=O)N(C(C)C)[C@@H](CC(C)C)c1nc(-c2ccccc2)c[nH]1` [Cpd 140], the figures for the Ki (at human mu opioid receptor; in assay [1]) were 0.079 µM and 0.985 µM, respectively.

For `Cc1cc(O)cc(C)c1C[C@H](N)C(=O)N(Cc1nc(Br)c(C)[nH]1)C(C)C` [Cpd 65], the results for the Ki (at human mu opioid receptor; in assay [1]) were 0.00036 µM and 0.517 µM, respectively.

These data come from patent publication US10213415B2, “Compounds as opioid receptor modulators” (JANSSEN PHARMACEUTICA NV, priority 2004, dated 2019).
